Test [1] deals with H-2 L^d:Ig (DimerX) protein. Briefly: SPR kinetics of synthetic peptide binding to immobilized DimerX. Also noted: species or system Mouse. The note with it: for Kd: KD = kd/ka from SPR at 25°C, read-out: affinity constant (KD); for association constant (ka) / dissociation constant (kd): SPR, DimerX immobilized on carboxylated sensor chip by EDC/NHS, peptide in PBS, neutral pH, 25°C. Here is the method: Surface Functionalization of Sensor Chip (Steps 1 and 2). The functionalization process was performed in eight steps using running buffer (10 mM HEPES, 3 mM EDTA, 150 mM NaCl, and 0.005% Tween 20, pH 7.4) at a continuous flow rate (Fr): (i) injection of 10 μL of 50 mM HCl (Fr = 10 μL/min); (ii) injection of 100 μL 10 mM CH3COOH (Fr = 50 μL/min); (iii) injection of 150 μL of coupling agents (1 : 1) 400 mM EDC : NHS (Fr = 15 μL/min); (iv) injection of 100 μL 10 mM CH3COOH (Fr = 50 μL/min); (v) injection of 100 μL (0.5 μg) of DimerX H-2 L^d:Ig (Fr = 10 μL/min); (vi) injection of 100 μL 10 mM CH3COOH (Fr = 50 μL/min); (vii) injection of 150 μL 100 mM ethanolamine (Fr = 20 μL/min); and (viii) injection of 200 μL 50 mM HCl (Fr = 50 μL/min).
Chain of H-2 L^d:Ig (DimerX) protein (P01897 25-298 limits assumed): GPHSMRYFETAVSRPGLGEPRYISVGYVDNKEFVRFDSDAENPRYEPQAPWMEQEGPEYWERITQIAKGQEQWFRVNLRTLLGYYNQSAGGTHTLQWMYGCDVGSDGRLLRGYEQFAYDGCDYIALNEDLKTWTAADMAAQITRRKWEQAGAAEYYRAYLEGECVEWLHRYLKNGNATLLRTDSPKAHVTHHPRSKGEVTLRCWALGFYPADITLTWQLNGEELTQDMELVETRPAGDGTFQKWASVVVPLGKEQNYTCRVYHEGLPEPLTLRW
Chain of H-2 L^d:Ig (DimerX) protein (P01887 21-119, further chain): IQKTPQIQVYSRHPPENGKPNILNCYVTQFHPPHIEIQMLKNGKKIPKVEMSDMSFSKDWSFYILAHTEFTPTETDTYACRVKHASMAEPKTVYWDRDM
Complex Formation of H-2 L ^d :Ig/Peptide (Step 3). Binding of peptides to protein DimerX was performed through the injection of 100 μL of each synthetic peptide over the functionalized sensor chip (Fr = 10 μL/min). The peptides (2 mg/mL) were diluted in filtrated PBS, which was also used as the running buffer. The concentration of peptides for binding to the DimerX was determined according to the manufacturer's instructions:(1) Mp=MH·R·Dp/DH, where Mp is micrograms of the peptide, MH is micrograms of H-2 in the reaction, R is molar excess (160 mol) between the peptide and protein H-2, Dp is molecular weight of the peptide, and DH is molecular weight of DimerX (250,000 Da).
Affinity Constants and Gibbs Free Energy. […] The following calculation was used to obtain the KD for interactions that rapidly reach equilibrium:(2) KD=kd/ka. The formation of molecular complex between DimerX and peptides complex was also analyzed to calculate the Gibbs free energy of dissociation. This energy is related to the equilibrium constant (Keq) of the transition state between the product (DimerX/peptide) and its transient state. The values of Keq were calculated using the ka and kd data obtained from the SPR assay at 25°C:(3) ΔG^°=−RTln1/Keq.
The kinetic parameters of DimerX/peptides complexes were assessed, prior to the ex vivo assay with the mouse cells, to ensure that the assayed peptides could stably bind to the H-2 cleft of DimerX proteins. The DimerX proteins were immobilized onto the sensor chip using the EDC/NHS methodology for covalent binding and, thus, we assumed that the α1 and α2 domains of the recombinant H-2 were free to interact with the synthetic peptides in solution. The RU value obtained after DimerX immobilization was taken as reference to define the baseline to measure peptides binding (Figure 1).
(In general: Surface plasmon resonance follows binding to a sensor surface in real time, without labels.)

For test [2], the system named is lymph node cells (T lymphocytes) from L. (L.) amazonensis-infected BALB/c mice. Put plainly: SPR interaction of lymph node cells with immobilized DimerX/peptide complexes. The test is classed as cell-based. Conditions: for RUs (subtractive dissociation response) 3rd week: 3rd week of infection; for RUs (subtractive dissociation response) 4th week: 4th week of infection; for RUs (subtractive dissociation response) 6th week: 6th week of infection; for RUs (subtractive dissociation response) 18th week: 18th week of infection; for trend of reactivity of peptide-reactive T lymphocytes along the infection: weeks 1 to 18 of infection, result in words; for RUs (subtractive dissociation response) 12th week: 12th week of infection. The protocol: BALB/c 5–7-week-old female mice (H-2 haplotype^d) were obtained from the animal care facility of Fiocruz (Centro de Criação de Animais de Laboratório (CECAL), Fiocruz). For the experimental infections, each animal was inoculated subcutaneously with 1.0 × 10^5 stationary-phase promastigotes in PBS (50 μL) in the left hind paw. For in vitro and ex vivo assays, cells were isolated from the lesion-draining popliteal lymph nodes of five mice infected with L. (L.) amazonensis. After isolating and counting the viable cells, these were adjusted and resuspended in RPMI medium supplemented with 2% FCS (5.0 × 10^5 cells/mL). All procedures using animals were previously approved by the Animal Ethics Committee of Fiocruz (Comissão de Ética no Uso de Animais (CEUA), Fiocruz; L-0006/07).
Interaction of the Cells with the Complex DimerX/Peptide (Step 4). The reflectance values were expressed as resonance units per second (RU/s). In these assays, the kinetics of association and dissociation between immobilized DimerX/peptide complexes and lymph node cells were determined. These assays were performed with 10^4 cells suspended in PBS in a final volume of 100 μL (Fr = 5 μL/min).
Regeneration of the Sensor Chips (Step 5). The regeneration was performed by the injection of 250 μL of 30 mM HCl (Fr = 50 μL/min) into the system, followed by the injection of 200 μL PBS (Fr = 50 μL/min). After this procedure, only the DimerX molecules were left on the sensor chip surface; thus they were able to form new complexes with different peptides and interact again with cells.
Lymph node cells were injected onto SPR chips covered by immobilized DimerX/peptides complexes (Figure 4). In these experiments, due to the complexity to define the kinetic parameters for whole cells, the RU values for association (RUa) and dissociation (RUd) were used as standards to assess interaction of cells with the complexes. Also, as the stability of RUd signal over time relates to the stability of interaction, it was used as parameter to define the binding of reactive cells.
Furthermore, experimental evidences support the hypothesis that the binding of the cells from infected mice to the immobilized complexes is specific, once the RUd values obtained for these interactions were consistently higher that those observed for the interaction of cells from noninfected mice. The RU values obtained by the subtraction of the nonspecific interaction RU (cells from noninfected animals) from the specific interaction RU (cells from infected mice) were considered as representative of the binding effectiveness (Table 2). These effectiveness RU values allowed observing a different trend of T lymphocytes recognition for each peptide tested throughout the experimental infection timeline (Table 2).

[3] abbreviates: RUd of cells from infected mice minus RUd of cells from noninfected mice, 10^4 cells in PBS.

A word on the Kd: it is the free concentration of one partner at which half of the binding sites on the other are occupied at equilibrium, for simple one-to-one binding.

Consider “CLGGGLCL [P6.4, synthetic peptide CLGGGLCL derived from the COOH-terminal region of cysteine proteinase B of L. (L.) amazonensis]”, for which, in test [1], the Kd worked out at 9 nM, the “association constant (ka)” value is 1.20 × 10^7 M^−1 S^−1 and the “dissociation constant (kd)” value came to 0.1089 S^−1. Also, in test [2] (setting [3]), the “RUs (subtractive dissociation response) 3rd week” value is 100 RU, the “RUs (subtractive dissociation response) 4th week” value was 127 RU, the “RUs (subtractive dissociation response) 6th week” value amounted to 140 RU and the “RUs (subtractive dissociation response) 18th week” value was 66 RU. Moreover, in test [2], the “trend of reactivity of peptide-reactive T lymphocytes along the infection” value (“trend” below) is given as “oscillation in their reactivity”.
On to “EFCLGGGLC [P6.5, synthetic peptide … derived from the COOH-terminal region of cysteine proteinase B of L. (L.) amazonensis]”, for which, in test [1], the Kd turned out to be 0.7 nM, the “association constant (ka)” value is on record as 6.40 × 10^7 M^−1 S^−1 and the “dissociation constant (kd)” value worked out at 0.0470 S^−1. Besides, in test [2] (setting [3]), the “RUs (subtractive dissociation response) 3rd week” value is listed as 55 RU, the “RUs (subtractive dissociation response) 4th week” value is on record as 185 RU, the “RUs (subtractive dissociation response) 6th week” value was 109 RU and the “RUs (subtractive dissociation response) 12th week” value stood at 27 RU. The “RUs (subtractive dissociation response) 18th week” value in test [2] (setting [3]) turned out to be 85 RU. In addition, the “trend” value in test [2] is “oscillation in their reactivity”.
In the case of “MVEQVICFD [P1.9, synthetic peptide … derived from the COOH-terminal region of cysteine proteinase B of L. (L.) amazonensis]”, in test [1], the Kd is 74 nM, the “association constant (ka)” value is 1.57 × 10^6 M^−1 S^−1 and the “dissociation constant (kd)” value is recorded as 0.1157 S^−1. Also, the “RUs (subtractive dissociation response) 1st week” value in test [2] (RUd of cells from infected mice minus RUd of cells from noninfected mice, 10^4 cells in PBS, 1st week of infection) is listed as 115 RU. In test [2] (setting [3]), the “RUs (subtractive dissociation response) 3rd week” value came to 181 RU, the “RUs (subtractive dissociation response) 4th week” value is listed as 149 RU, the “RUs (subtractive dissociation response) 6th week” value is reported as 118 RU and the “RUs (subtractive dissociation response) 12th week” value amounted to 120 RU. In addition, the “RUs (subtractive dissociation response) 18th week” value in test [2] (setting [3]) was determined as 66 RU. Besides, the “trend” value in test [2] is listed as “oscillation in their reactivity”.
Consider “VEQVICFD [P1.10, synthetic peptide VEQVICFD derived from the COOH-terminal region of cysteine proteinase B of L. (L.) amazonensis]”, for which, in test [1], the Kd is 1 nM, the “association constant (ka)” value is recorded as 1.10 × 10^8 M^−1 S^−1 and the “dissociation constant (kd)” value amounted to 0.1230 S^−1. Also, in test [2] (setting [3]), the “RUs (subtractive dissociation response) 3rd week” value was 227 RU, the “RUs (subtractive dissociation response) 6th week” value amounted to 123 RU, the “RUs (subtractive dissociation response) 12th week” value is on record as 31 RU and the “RUs (subtractive dissociation response) 18th week” value worked out at 44 RU. The “trend” value in test [2] was “clear tendency to diminish their reactivity along the infection”.
